Reference: US20220323380A1, “DRUG COMBINATION FOR USE IN THE TREATMENT OF INFLAMMATORY DISEASES” (ISANAS AG, priority 2019, published 2022)

What was measured:
[1] = in vivo; cited from earlier work
MS patients = settings: cited from earlier work
EAE rat model = settings: cited from earlier work
PC12D cells = settings: cell cultures (Tsang 2002); cited from earlier work
MS-patients = test: Treatment of MS patients with the triple combination (case reports, MS score); assay type: in vivo, human; settings: Example 2: one MS patient, own words
Description: The scoring ranges from zero to ten points and is the sum of the physical score and cognitive score. Attributing half points was allowed to better cover the full scale and subtlety of MS symptoms.

[2] = tested on: patient suffering from MS; settings: daily 300 mg bupropion over four weeks, MRI after three months, MS patient with depression; cited from earlier work
[3] = humans, compared with MK-4 (Sato 2012); cited from earlier work

## CC1=CC(=O)c2ccccc2C1=O [VK3, 2-methylnaphthalene-1,4-dione]
[1]
  reason for discontinued sales as prescription drug: adverse effects and liver toxicity

## Vitamin D
MS patients; meta-analysis Zheng 2018
  EDSS scores and annual relapse rate (ARR): no therapeutic effect
MS patients; review Jagannath 2018
  recurrence of relapse, worsening of disability (EDSS), MRI lesions: no effect

## C=C1CC[C@H](O)C/C1=C/C=C1\CCC[C@]2(C)[C@@H]([C@H](C)CCCC(C)C)CC[C@@H]12 [vitamin D3, cholecalciferol]
MS patients; meta-analysis (Steinwart 2018), weekly dosage of 20,000 IU D3
  correlation with treatment effect in MS: did not provide any relevant correlation with treatment effect

## menaquinone [VK2]
EAE rat model; given after the onset of EAE
  efficacy in EAE: not effective
EAE rat model; prophylactic intraperitoneal administration, 62.5 mg/kg/d
  severity of EAE: ameliorated the severity of EAE
PC12D cells
  nerve growth factor-mediated neurite outgrowth: promoting activity

## ocrelizumab: humanised monoclonal antibody that targets the CD20 marker on B lymphocytes
MS-patients
  patient's comparison of ocrelizumab with the combination therapy: could not achieve what this combination therapy could

## CC(NC(C)(C)C)C(=O)c1cccc(Cl)c1 (centres unmarked) [bupropion]
[2]
  MRI analysis of lesions: rather showed a reduction of the lesions than a progression

## CC(C)=CCC/C(C)=C/CC/C(C)=C/CC/C(C)=C/CC/C(C)=C/CC/C(C)=C/CC/C(C)=C/CC1=C(C)C(=O)c2ccccc2C1=O [MK-7]
[3]
  bioavailability after oral intake: much higher bioavailability after oral intake than MK-4

## CC1=C(C/C=C(\C)CCC[C@H](C)CCC[C@H](C)CCCC(C)C)C(=O)c2ccccc2C1=O [vitamin K1, phylloquinone]
PC12D cells
  nerve growth factor-mediated neurite outgrowth: promoting activity
